Publication PMC12040169 (PLOS Biology, 2025)

Experiment: in vitro
Settings: human, hela cells, % viability

Row | SMILES | viability at 28.5 h, 10 µM
1 | CCOc1cc(/C=C(/C#N)C(N)=S)ccc1OCC(=O)N1CCCC1 [CBK268765] | 91.3%
2 | O=C1c2ccc(Oc3cccc([N+](=O)[O-])c3)cc2C(=O)N1c1ccccn1 [CBK261190] | 95.8%
3 | CCCc1cc(O)nc(SCC(=O)Nc2cc3c(cc2C(C)=O)OCO3)n1 [CBK266144] | 92%
4 | N#Cc1c(NC(=O)c2cccc(S(=O)(=O)Nc3ccc(C(=O)O)cc3)c2)sc2c1CCCC2 [CBK266762] | 106%
5 | O=C1CC(c2ccccc2)=NN1c1nc(-c2ccccc2)cc(-c2ccc(F)cc2)n1 [CBK261717] | 92.4%
6 | O=S(=O)(Nc1ccc(N2CCNCC2)c2ccccc12)c1ccc(Br)cc1F [CBK200014C] | 95.4%
7 | CCOc1cc(OCC)cc(C(=O)N2CCC3(CC2)CC(=O)c2ccc(N)cc2O3)c1 [CBK168018] | 111%
8 | S=C(NCCn1cc(Br)cn1)NCc1ccco1 [CBK266914] | 95.5%
9 | CCOC(=O)N1CCC(NS(=O)(=O)c2ccc(C)c([N+](=O)[O-])c2)CC1 [CBK045468] | 85.8%
10 | O=C1NC2(CCSCC2)Oc2ccccc21 [CBK007488] | 79.3%
11 | Cc1cc(C)n(C2CCN(Cc3ccc(-n4ccnc4C)cc3)CC2)n1 [CBK281976] | 112%
12 | CN(C)C(=O)c1cccc(NC(=O)C2CCCCC2)c1 [CBK304515] | 89.7%
13 | CN1CCN(c2ccnc3cc(Cl)ccc23)CC1 [CBK066867C] | 86%
14 | c1ccc(-c2n[nH]cc2-c2cncn2CCCN2CCCCC2)cc1 [CBK281464] | 90.4%
15 | O=C(Nc1cccc2cccnc12)c1cccc2ccccc12 [CBK261473] | 72.7%
16 | CCOc1ccccc1NC(=O)CN(c1cc(C(F)(F)F)ccc1Cl)S(C)(=O)=O [CBK264627] | 84.7%
17 | CC(C)(C)c1cc(NC(=O)CSc2ccc(S(=O)(=O)N3CCCC3)cn2)n(-c2ccccc2)n1 [CBK297099] | 89%
18 | CC(C)c1ccc(/C=C/C(=O)N[C@H]2CC[C@H](O)CC2)cc1 [CBK149644] | 106%
19 | NC1=C(N)OC(Oc2ccccc2C(F)(F)F)=NN1 [CBK018424] | 57.2%
20 | Cc1ccc(C)c(Nc2nc3nonc3nc2N2CCOCC2)c1 [CBK262491] | 88.8%
21 | Cc1cccc(C)c1NC(=O)C(=O)NCCCN1CCOCC1 [CBK264850] | 90.6%
22 | COc1cc(OC)cc(C(=O)N2CCC3(CC2)CC(=O)c2cc(C)ccc2O3)c1 [CBK167804] | 94.6%

Row | SMILES | viability at 28.5 h, 10 µM
23 | c1ccc(Sc2nccnc2N2CCCC2)nc1 [CBK093734] | 87.7%
24 | CC1(C)CC(=O)C2=C(C1)c1onc(N)c1C2Cc1ccccc1 (centres unmarked) [CBK269206] | 110%
25 | CCn1cc(S(=O)(=O)N2CCN(c3cccc(C(F)(F)F)c3)CC2)cn1 [CBK270328] | 93.6%
26 | Cc1noc(C2=CC=CN3C2=NNC32CCNCC2)n1 [CBK288058] | 91%
27 | CCN1CCN(c2ncnc3sc(C)c(C)c23)CC1 [CBK288101] | 98.6%
28 | c1ccc(-c2nccnc2NCC2CC2)cc1 [CBK088539] | 88.4%
29 | O=c1[nH]c2ccccc2n1CCCN1CCC2(CC1)CN(CCO)c1ccccc12 [CBK137133] | 97.4%
30 | CCP(CC)c1ccc(C(=O)O)cc1 [CBK019342B] | 91.1%
31 | COc1cccc(CCNC(=O)CCN2C(=O)CCC2=O)c1 [CBK023150] | 91.8%
32 | CCc1cc(Br)ccc1S(=O)(=O)Nc1ccccc1O [CBK043877] | 92%
33 | O=S(=O)(Nc1nnn[nH]1)c1cccc2nonc12 [CBK062380] | 104%
34 | CCn1nc(C)c(-c2cncn2CCCOc2ccccc2C)c1C [CBK281761] | 99.7%
35 | COc1cc(CN2C[C@@H](c3ccccc3)[C@@H]3NC(=O)CCCC[C@H]32)cc(OC)c1 [CBK285646] | 89.6%
36 | CCOC(=O)C1CSCCN1C(=O)c1cc(C)n(-c2nccs2)c1C (centres unmarked) [CBK305884] | 75%
37 | CCOc1ccccc1NC(=O)CSc1c[nH]nn1 [CBK270005] | 83.3%
38 | Cc1ccc(NC(=O)CCC(=O)N/N=C/c2ccco2)c(C)c1 [CBK263885] | 96.4%
39 | CC(=O)N1CCC(N[C@H]2C[C@@H](Cc3cc(CN4CCCCC4)on3)C2(C)C)CC1 [CBK289699] | 89%
40 | Cc1cc(C)nc(SCc2nc(N)nc(-c3ccccc3O)n2)n1 [CBK266725] | 94.4%
41 | O=C(Nc1ccc(S(=O)(=O)NCCc2ccccc2)cc1)c1ccc2c(c1)OCO2 [CBK265591] | 108%
42 | CCN(CC)C(=O)N1CCC(c2ccncc2)CC1 [CBK283503] | 101%
43 | Fc1ccc(Cn2nnc(-c3ccncc3)n2)c(Cl)c1 [CBK288534] | 102%
44 | O=C(Cn1cccc2cc(-c3ccc(F)cc3)nc1-2)N1CCOCC1 [CBK284809] | 87.5%

Row | SMILES | viability at 28.5 h, 10 µM
45 | CC1Cc2ccccc2N1C(=O)c1nn(C)cc1I (centres unmarked) [CBK058268] | 97.3%
46 | COc1ccc(N(CC(=O)NC2CC3CCC2C3)S(=O)(=O)c2ccc(C)cc2)cc1 (centres unmarked) [CBK266574] | 108%
47 | CCc1cc(C(=O)NC(c2ccncc2)c2cccs2)n(C)n1 (centres unmarked) [CBK281482] | 109%
48 | O=C(Nc1ncccn1)C1CCCCC1 [CBK027567] | 98.3%
49 | O=C(NC(=S)Nc1ccc(Br)cc1)c1ccccc1 [CBK092022] | 83.5%
50 | CC(NC(=O)C(C)(C)C)c1nc(-c2cccnc2)n[nH]1 (centres unmarked) [CBK104007] | 94.2%
51 | CC(=O)N(C)c1ncc(Br)cc1C(=O)NCCc1ccccc1 [CBK076543] | 93.8%
52 | O=C(c1nc2ccccc2[nH]1)N1CCN(c2ccccc2)CC1 [CBK200167] | 103%
53 | CN(CC1CCCN(C(=O)Nc2cccc(Cl)c2)C1)C(=O)OC(C)(C)C (centres unmarked) [CBK305597] | 94.2%
54 | CC(=O)Nc1ccc(Nc2cc(-c3ccc(CC(C)C)cc3)ncn2)cc1 [CBK090723] | 99.4%
55 | C1CN2CCC1/C(=N\Nc1nnn[nH]1)C2 [CBK019005C] | 93.8%
56 | COC(=O)c1ccc(C2N(Cc3ccccc3)CCN2Cc2ccccc2)cc1 [CBK265201] | 87.3%
57 | Cc1ccc(S(=O)(=O)NC(C)C(=O)Nc2ccc(C)c(Cl)c2)cc1 (centres unmarked) [CBK266263] | 98%
58 | O=S(=O)(Nc1ccc(N2CCNCC2)c2ccccc12)c1ccc(Cl)s1 [CBK003146C] | 104%
59 | NS(=O)(=O)c1ccc(CNC(=O)c2ccc(-c3ccc(OC(F)(F)F)cc3)nc2)cc1 [CBK156246] | 84.1%
60 | Oc1cccc(Sc2nc3ccccc3nc2N2CCCC2)c1 [CBK093753] | 88.5%
61 | O=C(CCN1C(=O)c2cc(Cl)c(Cl)cc2C1=O)Nc1cccc(-c2cnc3ccccc3n2)c1 [CBK268575] | 114%
62 | Cc1cc2ccccc2n2c(SCC(=O)NCC3CCCO3)nnc12 (centres unmarked) [CBK265688] | 103%
63 | O=C(CCN1C(=O)c2cccc3cccc(c23)C1=O)N1CCN(Cc2ccc3c(c2)OCO3)CC1 [CBK074420] | 96.2%
64 | COCCn1nc(C(=O)N2CCCc3ccccc32)ccc1=O [CBK305590] | 85.1%

Same assay, conditions: human, hela cells, % viability, bulk resorufin, single well

Row | SMILES | viability at 28.5 h, 10 µM
65 | O=C(Nc1cccc(Cl)c1)N1CCC2(CC1)OCc1cc(F)ccc1O2 [CBK060722] | 87.5%
